Results: ChEMBL document CHEMBL3882724 (2013)

Legend:
[1] = biological target: T1, Steroid 17-alpha-hydroxylase/17,20 lyase (Homo sapiens, UniProt P05093); test: Inhibition of CYP17 in human testicular microsomes using 17alpha-hydroxypregnenolone as substrate assessed as decrease in DHEA levels at 10 nM after 90 mins by ELISA relative to control; set-up: species or system Testis; conditions: 1.5 h
T1 sequence (P05093 whole entry): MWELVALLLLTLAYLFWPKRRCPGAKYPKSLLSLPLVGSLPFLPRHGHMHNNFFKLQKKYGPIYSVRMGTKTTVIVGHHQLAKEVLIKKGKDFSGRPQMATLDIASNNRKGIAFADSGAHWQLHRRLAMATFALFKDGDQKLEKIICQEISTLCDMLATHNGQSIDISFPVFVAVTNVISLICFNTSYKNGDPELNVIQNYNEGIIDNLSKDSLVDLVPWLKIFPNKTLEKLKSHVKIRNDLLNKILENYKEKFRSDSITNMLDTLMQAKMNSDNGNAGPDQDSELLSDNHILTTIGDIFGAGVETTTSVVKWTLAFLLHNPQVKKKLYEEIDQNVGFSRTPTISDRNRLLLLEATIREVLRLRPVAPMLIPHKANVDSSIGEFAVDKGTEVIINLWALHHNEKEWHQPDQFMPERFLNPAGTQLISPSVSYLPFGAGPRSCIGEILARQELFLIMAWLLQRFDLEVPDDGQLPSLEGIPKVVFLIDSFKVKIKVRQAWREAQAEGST

[2] = biological target: T1, Steroid 17-alpha-hydroxylase/17,20 lyase; test: Inhibition of CYP17 in human testicular microsomes using 17alpha-hydroxypregnenolone as substrate assessed as decrease in DHEA levels after 90 mins by ELISA; set-up: species or system Testis
[3] = biological target: T2, CYP21 (steroid 21-hydroxylase) (Homo sapiens, UniProt P08686); test: Inhibition of human CYP21 transfected in HEK293 cells assessed as decrease in conversion of progesterone to 11-deoxycorticosterone preincubated for 5 hrs followed by progesterone addition measured after 20 hrs by ELISA; format: cell-based; set-up: concentration or dose not given beside the values; conditions: HEK293 cells transfected with human CYP21, probe progesterone
T2 sequence (P08686 whole entry): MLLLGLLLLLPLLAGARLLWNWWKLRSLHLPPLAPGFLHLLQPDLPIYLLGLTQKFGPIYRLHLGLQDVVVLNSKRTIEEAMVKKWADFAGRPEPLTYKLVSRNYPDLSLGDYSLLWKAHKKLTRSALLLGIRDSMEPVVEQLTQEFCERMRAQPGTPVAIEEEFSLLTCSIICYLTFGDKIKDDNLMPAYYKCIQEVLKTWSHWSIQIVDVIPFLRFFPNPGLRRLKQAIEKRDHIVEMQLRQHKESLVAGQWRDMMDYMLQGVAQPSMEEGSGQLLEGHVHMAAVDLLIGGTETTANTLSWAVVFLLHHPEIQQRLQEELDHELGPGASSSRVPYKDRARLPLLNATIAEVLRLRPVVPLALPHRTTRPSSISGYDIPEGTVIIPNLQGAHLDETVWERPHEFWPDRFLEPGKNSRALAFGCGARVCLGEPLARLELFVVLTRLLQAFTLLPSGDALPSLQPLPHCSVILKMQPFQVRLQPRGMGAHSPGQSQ

[4] = Half life in human liver microsomes at 1 uM by LC-MS/MS analysis

| inhibition at 0.01 µM [1] [%] | Compound | other results |
| --- | --- | --- |
| 50 to 80 | C[C@]12CCC(=O)NC[C@@H]1CC[C@@H]1[C@@H]2CC[C@]2(C)C(n3ccnc3)=CC[C@@H]12 | – |
| 50 to 80 | C=Cc1cncc(C2=CC[C@H]3[C@@H]4CCN5C(=O)CCCC[C@]5(C)[C@H]4CC[C@]23C)c1 | IC50 [2]: ≤ 11 nM |
| 1 to 50 | COc1cncc(C2=CC[C@H]3[C@@H]4CCC5=CCN(C)CC[C@]5(C)[C@H]4CC[C@]23C)c1 | – |
| 1 to 50 | CCCOc1cncc(C2=CC[C@H]3[C@@H]4CCC5=CCN(C)CC[C@]5(C)[C@H]4CC[C@]23C)c1 | – |
| 50 to 80 | CCCOc1cncc(C2=CC[C@H]3[C@@H]4CCN5C(=O)CCCC[C@]5(C)[C@H]4CC[C@]23C)c1 | IC50 [2]: ≤ 11 nM |
| 50 to 80 | C[C@]12CCNC(=O)CC[C@@H]1CC[C@@H]1[C@@H]2CC[C@]2(C)C(c3cccnc3)=CC[C@@H]12 | – |
| 1 to 50 | C[C@]12CC[C@H]3[C@@H](CCN4CCCCC[C@]34C)[C@@H]1CC=C2c1cccnc1 | – |
| 1 to 50 | CN1CC=C2CC[C@@H]3[C@H](CC[C@]4(C)C(c5cccnc5)=CC[C@@H]34)[C@@]2(C)CC1 | IC50 [2]: ≤ 11 nM |
| 1 to 50 | CN1CC[C@@]2(C)C(=CC1=O)CC[C@@H]1[C@@H]2CC[C@]2(C)C(n3cnc4ccccc43)=CC[C@@H]12 | – |
| 50 to 80 | C[C@]12CC[C@H]3[C@@H](CCC4=CC(=O)NCC[C@@]43C)C1=CC=C2c1cccnc1 | IC50 [2]: ≤ 11 nM |
| 50 to 80 | Cc1cncc(C2=CC[C@H]3[C@@H]4CCC5=CC(=O)N(C)CC[C@]5(C)[C@H]4CC[C@]23C)c1 | IC50 [2]: ≤ 11 nM |
| 1 to 50 | C[C@]12CC(=O)C[C@@H]1CC[C@@H]1[C@@H]2CC[C@]2(C)C(n3ccnn3)=CC[C@@H]12 | – |
| 1 to 50 | COc1cncc(C2=CC[C@H]3[C@@H]4CCN5CCCCC[C@]5(C)[C@H]4CC[C@]23C)c1 | – |
| 1 to 50 | C[C@]12CCCNC[C@@H]1CC[C@@H]1[C@@H]2CC[C@]2(C)C(n3ccnn3)=CC[C@@H]12 | – |
| 1 to 50 | C[C@]12CCNCC[C@@H]1CC[C@@H]1[C@@H]2CC[C@]2(C)C(n3ccnn3)=CC[C@@H]12 | – |
| 1 to 50 | CCc1cncc(C2=CC[C@H]3[C@@H]4CC=C5CCCC[C@]5(C)[C@H]4CC[C@]23C)c1 | – |
| 1 to 50 | Cc1cncc(C2=CC[C@H]3[C@@H]4CCN5CCCCC[C@]5(C)[C@H]4CC[C@]23C)c1 | – |
| 50 to 80 | CCCOc1cncc(C2=CC[C@H]3[C@@H]4CCC5=CC(=O)N(C)CC[C@]5(C)[C@H]4CC[C@]23C)c1 | – |
| 50 to 80 | COc1cncc(C2=CC[C@H]3[C@@H]4CC=C5CCCC[C@]5(C)[C@H]4CC[C@]23C)c1 | – |
| 1 to 50 | C[C@]12CCCCC[C@@H]1CC[C@@H]1[C@@H]2CC[C@]2(C)C(c3cnccc3Cl)=CC[C@@H]12 | – |
| 50 to 80 | COc1cncc(C2=CC[C@H]3[C@@H]4CCC5=CC(=O)NCC[C@]5(C)[C@H]4CC[C@]23C)c1 | IC50 [2]: ≤ 11 nM |
| 1 to 50 | CCc1cncc(C2=CC[C@H]3[C@@H]4CCC5=CCN(C)CC[C@]5(C)[C@H]4CC[C@]23C)c1 | – |
| 1 to 50 | C[C@]12CCNC(=O)C=C1CC[C@@H]1[C@@H]2CC[C@]2(C)C(n3cnc4ccccc43)=CC[C@@H]12 | – |
| ≤ 11 | C[C@]12CC(O)C[C@@H]1CC[C@@H]1[C@@H]2CC[C@]2(C)C(n3ccnn3)=CC[C@@H]12 (stereo not given in full) | IC50 [2]: 50 to 80 nM |
| 1 to 50 | COC1CC[C@@]2(C)[C@@H](CC[C@@H]3[C@@H]2CC[C@]2(C)C(c4cccnc4)=CC[C@@H]32)C1 (stereo not given in full) | – |
| 1 to 50 | C[C@]12CCCCC[C@@H]1CC[C@@H]1[C@@H]2CC[C@]2(C)C(c3cccnc3)=CC[C@@H]12 | – |
| 1 to 50 | C[C@]12CCC(=O)NC[C@@H]1CC[C@@H]1[C@@H]2CC[C@]2(C)C(n3ccnn3)=CC[C@@H]12 | – |
| 1 to 50 | Cc1cncc(C2=CC[C@H]3[C@@H]4CCC5=CN(C)CCC[C@]5(C)[C@H]4CC[C@]23C)c1 | – |
| 50 to 80 | Cc1cncc(C2=CC[C@H]3[C@@H]4CC=C5CCCC[C@]5(C)[C@H]4CC[C@]23C)c1 | – |

Continued, compound first:

| Compound | inhibition at 0.01 µM [1] [%] | other results |
| --- | --- | --- |
| Cc1cncc(C2=CC[C@H]3[C@@H]4CCC5N(C)C(=O)COC[C@]5(C)[C@H]4CC[C@]23C)c1 (stereo not given in full) | 1 to 50 | – |
| CCOc1cncc(C2=CC[C@H]3[C@@H]4CC[C@H]5CCCCC[C@]5(C)[C@H]4CC[C@]23C)c1 | 1 to 50 | – |
| Cc1ccncc1C1=CC[C@H]2[C@@H]3CC[C@H]4CCCCC[C@]4(C)[C@H]3CC[C@]12C | 1 to 50 | – |
| Cc1cncc(C2=CC[C@H]3[C@@H]4CC[C@H]5CCCCC[C@]5(C)[C@H]4CC[C@]23C)c1 | 1 to 50 | – |
| COc1cncc(C2=CC[C@H]3[C@@H]4CC[C@H]5CCCCC[C@]5(C)[C@H]4CC[C@]23C)c1 | 50 to 80 | – |
| C[C@]12CC[C@H]3[C@@H](CC[C@H]4CNC(=O)CC[C@@]43C)C1=CC=C2c1cccnc1 | 50 to 80 | – |
| CCc1cncc(C2=CC[C@H]3[C@@H]4CC[C@H]5CCCCC[C@]5(C)[C@H]4CC[C@]23C)c1 | 1 to 50 | – |
| Cc1cncc(C2=CC[C@H]3[C@@H]4CC[C@H]5CCOCC[C@]5(C)[C@H]4CC[C@]23C)c1 | 50 to 80 | IC50 [2]: ≤ 11 nM |
| COc1cncc(C2=CC=C3[C@@H]4CC=C5C[C@@H](OC(C)=O)CC[C@]5(C)[C@H]4CC[C@]23C)c1 | ≥ 80 | IC50 [2]: ≤ 11 nM |
| C[C@]12CC[C@H]3[C@@H](CC[C@H]4CNC(=O)CC[C@@]43C)C1=CC=C2n1ccnn1 | 1 to 50 | – |
| CC(=O)O[C@H]1CC[C@@]2(C)[C@@H](CC[C@H]3C4=CC=C(n5ccnc5)[C@@]4(C)CC[C@@H]32)C1 | ≥ 80 | IC50 [2]: ≤ 11 nM |
| CC(=O)O[C@H]1CC[C@@]2(C)[C@@H](CC[C@H]3C4=CC=C(c5cccnc5)[C@@]4(C)CC[C@@H]32)C1 | ≥ 80 | – |
| C[C@]12CC[C@H]3[C@@H](CC[C@H]4CNC(=O)CC[C@@]43C)C1=CC=C2n1ccnc1 | 50 to 80 | – |
| C[C@]12CC[C@H](O)C[C@@H]1CC[C@@H]1[C@@H]2CC[C@]2(C)C(n3ccnn3)=CC[C@@H]12 | ≥ 80 | IC50 [2]: ≤ 11 nM |
| COC1CC[C@@]2(C)[C@@H](CC[C@@H]3[C@@H]2CC[C@]2(C)C(n4ccnn4)=CC[C@@H]32)C1 (stereo not given in full) | 1 to 50 | – |
| CCOc1cncc(C2=CC[C@H]3[C@@H]4CC[C@H]5CCOCC[C@]5(C)[C@H]4CC[C@]23C)c1 | 50 to 80 | – |
| C[C@]12CC[C@H]3[C@@H](CC[C@H]4CC(=O)NCC[C@@]43C)C1=CC=C2n1ccnn1 | 1 to 50 | – |
| COC1CC[C@@]2(C)[C@@H](CC[C@@H]3[C@@H]2CC[C@]2(C)C(c4cncc(C)c4)=CC[C@@H]32)C1 (stereo not given in full) | 1 to 50 | – |
| CCOc1cncc(C2=CC[C@H]3[C@@H]4CCC5N(C)C(=O)COC[C@]5(C)[C@H]4CC[C@]23C)c1 (stereo not given in full) | 1 to 50 | – |
| COC1CC2[C@@H]3CC=C(n4ccnc4)[C@@]3(C)CC[C@@H]2[C@@]2(C)CCC3CC312 (single isomer, unassigned) | ≥ 80 | IC50 [2]: ≤ 11 nM; inhibition at 20 h [3]: 10 to 50% |
| C[C@]12CC[C@@H](NC(=O)C3CC3)CC1=CC[C@H]1C3CC=C(c4cccnc4)[C@@]3(C)CC[C@@H]12 (single isomer, unassigned) | – | IC50 [2]: ≤ 11 nM; half-life at 1 µM [4]: 1 to 50 min; inhibition at 20 h [3]: ≥ 50% |
